Data reported in PubChem BioAssay (NCI).
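How tested: cells in 96-well plates exposed to compound for 48 hours at five concentrations. TGI marks complete inhibition of growth.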

How the values were obtained:
Assay in all cases: NCI anticancer screen, dose series, 48 h
[1] = test system: LXFL 529 NSCLC
[2] = test system: NCI-H460 lung
[3] = test system: KM12 colon
[4] = test system: M19-MEL melanoma
[5] = test system: UACC-62 melanoma
[6] = test system: OVCAR-8 ovarian
[7] = test system: K-562 leukemia
[8] = test system: HCC-2998 colon
[9] = test system: DLD-1 colon
[10] = test system: SF-268 CNS
[11] = test system: SK-OV-3 ovarian
[12] = test system: U251 CNS
[13] = test system: NCI-H23 lung
[14] = test system: UACC-257 melanoma
[15] = test system: COLO 205 colon
[16] = test system: OVCAR-5 ovarian
[17] = test system: HT29 colon
[18] = test system: UO-31 renal
[19] = test system: TK-10 renal
[20] = test system: IGROV1 ovarian
[21] = test system: SNB-75 CNS
[22] = test system: NCI-H226 lung
[23] = test system: SF-539 CNS
[24] = test system: NCI-H522 lung
[25] = test system: OVCAR-3 ovarian
[26] = test system: SF-295 CNS
[27] = test system: ACHN renal
[28] = test system: CCRF-CEM leukemia
[29] = test system: HOP-62 NSCLC
[30] = test system: A549 NSCLC
[31] = test system: SR leukemia
[32] = test system: HCT-116 colon
[33] = test system: RPMI-8226 leukemia
[34] = test system: HL-60(TB) leukemia
[35] = test system: MOLT-4 leukemia
[36] = test system: SW-620 colon
[37] = test system: SNB-19 CNS
[38] = test system: HOP-92 NSCLC
[39] = test system: SK-MEL-28 melanoma
[40] = test system: SK-MEL-5 melanoma
[41] = test system: KM20L2 colon
[42] = test system: XF 498 CNS
[43] = test system: HCT-15 colon
[44] = test system: M14 melanoma
[45] = test system: DMS 273 small cell lung
[46] = test system: SK-MEL-2 melanoma
[47] = test system: 786-0 renal
[48] = test system: MALME-3M melanoma
[49] = test system: CAKI-1 renal
[50] = test system: OVCAR-4 ovarian
[51] = test system: DMS 114 small cell lung
[52] = test system: SN12C renal
[53] = test system: RXF 393 renal
[54] = test system: EKVX NSCLC
[55] = test system: LOX IMVI melanoma
[56] = test system: SNB-78 CNS

SMILES: COc1ccc(/C=N/n2cnc3c(sc(=S)n3-c3ccccc3)c2=O)cc1
- TGI [1]: 48.8 µM
- TGI [2]: > 100 µM
- TGI [3]: > 100 µM
- TGI [4]: > 100 µM
- TGI [5]: 49.8 µM
- TGI [6]: > 100 µM
- TGI [7]: 48.8 µM
- TGI [8]: > 100 µM
- TGI [9]: > 100 µM
- TGI [10]: 38.8 µM
- TGI [11]: 58.6 µM
- TGI [12]: > 100 µM
- TGI [13]: 87.3 µM
- TGI [14]: > 100 µM
- TGI [15]: > 100 µM
- TGI [16]: > 100 µM
- TGI [17]: > 100 µM
- TGI [18]: > 100 µM
- TGI [19]: 65.4 µM
- TGI [20]: > 100 µM
- TGI [21]: 7.87 µM
- TGI [22]: 54.4 µM
- TGI [23]: 28.5 µM
- TGI [24]: 30.1 µM
- TGI [25]: 38.1 µM
- TGI [26]: 31.5 µM
- TGI [27]: > 100 µM
- TGI [28]: 57.8 µM
- TGI [29]: 37.3 µM
- TGI [30]: > 100 µM
- TGI [31]: > 100 µM
- TGI [32]: > 100 µM
- TGI [33]: 58.8 µM
- TGI [34]: 37.9 µM
- TGI [35]: 90.9 µM
- TGI [36]: > 100 µM
- TGI [37]: 77.5 µM
- TGI [38]: 29.6 µM
- TGI [39]: 38.6 µM
- TGI [40]: > 100 µM

SMILES: Cc1c(Cl)c2ccccc2n1S(=O)(=O)c1ccccc1
- TGI [1]: > 100 µM
- TGI [2]: > 100 µM
- TGI [3]: > 100 µM
- TGI [41]: > 100 µM
- TGI [42]: > 100 µM
- TGI [43]: > 100 µM
- TGI [5]: > 100 µM
- TGI [6]: > 100 µM
- TGI [7]: > 100 µM
- TGI [8]: > 100 µM
- TGI [9]: > 100 µM
- TGI [10]: > 100 µM
- TGI [12]: > 100 µM
- TGI [13]: > 100 µM
- TGI [14]: > 100 µM
- TGI [15]: > 100 µM
- TGI [44]: > 100 µM
- TGI [16]: > 100 µM
- TGI [17]: > 100 µM
- TGI [45]: > 100 µM
- TGI [18]: 85.6 µM
- TGI [46]: > 100 µM
- TGI [47]: > 100 µM
- TGI [19]: > 100 µM
- TGI [20]: > 100 µM
- TGI [21]: 58 µM
- TGI [48]: > 100 µM
- TGI [22]: > 100 µM
- TGI [23]: > 100 µM
- TGI [24]: 67.1 µM
- TGI [49]: > 100 µM
- TGI [25]: > 100 µM
- TGI [26]: > 100 µM
- TGI [27]: > 100 µM
- TGI [28]: > 100 µM
- TGI [29]: > 100 µM
- TGI [30]: > 100 µM
- TGI [31]: > 100 µM
- TGI [32]: > 100 µM
- TGI [50]: > 100 µM
- TGI [33]: 86 µM
- TGI [34]: 78.8 µM
- TGI [35]: > 100 µM
- TGI [36]: > 100 µM
- TGI [51]: > 100 µM
- TGI [37]: > 100 µM
- TGI [38]: 54.2 µM
- TGI [39]: > 100 µM
- TGI [40]: > 100 µM

SMILES: O=C(c1ccc(Cl)cc1)c1ccc(OCCCOc2ccc(C(=O)c3ccc(Cl)cc3)cc2)cc1
- TGI [1]: > 100 µM
- TGI [2]: > 100 µM
- TGI [3]: > 100 µM
- TGI [41]: > 100 µM
- TGI [42]: > 100 µM
- TGI [52]: > 100 µM
- TGI [4]: > 100 µM
- TGI [43]: > 100 µM
- TGI [5]: > 100 µM
- TGI [6]: > 100 µM
- TGI [7]: > 100 µM
- TGI [8]: > 100 µM
- TGI [9]: > 100 µM
- TGI [10]: > 100 µM
- TGI [11]: > 100 µM
- TGI [12]: > 100 µM
- TGI [13]: > 100 µM
- TGI [14]: > 100 µM
- TGI [15]: > 100 µM
- TGI [44]: > 100 µM
- TGI [16]: > 100 µM
- TGI [17]: > 100 µM
- TGI [45]: > 100 µM
- TGI [46]: > 100 µM
- TGI [47]: > 100 µM
- TGI [53]: > 100 µM
- TGI [19]: > 100 µM
- TGI [20]: > 100 µM
- TGI [21]: > 100 µM
- TGI [48]: > 100 µM
- TGI [54]: > 100 µM
- TGI [22]: > 100 µM
- TGI [23]: > 100 µM
- TGI [24]: > 100 µM
- TGI [49]: > 100 µM
- TGI [25]: > 100 µM
- TGI [26]: > 100 µM
- TGI [27]: > 100 µM
- TGI [55]: > 100 µM
- TGI [28]: > 100 µM
- TGI [29]: > 100 µM
- TGI [30]: > 100 µM
- TGI [31]: > 100 µM
- TGI [32]: > 100 µM
- TGI [50]: > 100 µM
- TGI [33]: > 100 µM
- TGI [34]: > 100 µM
- TGI [35]: > 100 µM
- TGI [36]: > 100 µM
- TGI [51]: > 100 µM
- TGI [37]: > 100 µM
- TGI [38]: > 100 µM
- TGI [39]: > 100 µM
- TGI [40]: > 100 µM

SMILES: COc1ccc(OC)c2c1CC(C(=O)O)(C(=O)O)CC2=O
- TGI [1]: > 100 µM
- TGI [3]: > 100 µM
- TGI [41]: > 100 µM
- TGI [52]: > 100 µM
- TGI [43]: > 100 µM
- TGI [5]: > 100 µM
- TGI [7]: > 100 µM
- TGI [8]: > 100 µM
- TGI [10]: > 100 µM
- TGI [11]: > 100 µM
- TGI [12]: > 100 µM
- TGI [13]: > 100 µM
- TGI [44]: > 100 µM
- TGI [16]: > 100 µM
- TGI [18]: > 100 µM
- TGI [46]: > 100 µM
- TGI [47]: > 100 µM
- TGI [53]: > 100 µM
- TGI [19]: > 100 µM
- TGI [20]: > 100 µM
- TGI [21]: > 100 µM
- TGI [48]: > 100 µM
- TGI [54]: > 100 µM
- TGI [22]: > 100 µM
- TGI [49]: > 100 µM
- TGI [25]: > 100 µM
- TGI [27]: > 100 µM
- TGI [55]: > 100 µM
- TGI [29]: > 100 µM
- TGI [30]: > 100 µM
- TGI [32]: > 100 µM
- TGI [50]: > 100 µM
- TGI [34]: > 100 µM
- TGI [35]: > 100 µM
- TGI [36]: > 100 µM
- TGI [51]: > 100 µM
- TGI [37]: > 100 µM
- TGI [38]: > 100 µM
- TGI [56]: > 100 µM
- TGI [39]: > 100 µM
- TGI [40]: > 100 µM

SMILES: O=c1nc(/C=C/c2ccccc2Cl)cc2n1CCN2CCO
- TGI [1]: > 100 µM
- TGI [2]: > 100 µM
- TGI [3]: > 100 µM
- TGI [52]: > 100 µM
- TGI [4]: > 100 µM
- TGI [43]: > 100 µM
- TGI [5]: > 100 µM
- TGI [6]: > 100 µM
- TGI [7]: > 100 µM
- TGI [9]: > 100 µM
- TGI [10]: > 100 µM
- TGI [11]: > 100 µM
- TGI [15]: > 100 µM
- TGI [44]: > 100 µM
- TGI [16]: > 100 µM
- TGI [17]: > 100 µM
- TGI [18]: > 100 µM
- TGI [46]: > 100 µM
- TGI [47]: > 100 µM
- TGI [53]: > 100 µM
- TGI [19]: > 100 µM
- TGI [20]: > 100 µM
- TGI [21]: > 100 µM
- TGI [48]: > 100 µM
- TGI [54]: > 100 µM
- TGI [22]: > 100 µM
- TGI [23]: > 100 µM
- TGI [24]: 47.4 µM
- TGI [49]: > 100 µM
- TGI [25]: 79.8 µM
- TGI [26]: > 100 µM
- TGI [27]: > 100 µM
- TGI [55]: > 100 µM
- TGI [28]: > 100 µM
- TGI [29]: > 100 µM
- TGI [31]: > 100 µM
- TGI [32]: > 100 µM
- TGI [50]: > 100 µM
- TGI [33]: > 100 µM
- TGI [34]: > 100 µM
- TGI [35]: > 100 µM
- TGI [36]: > 100 µM
- TGI [51]: > 100 µM
- TGI [38]: > 100 µM
- TGI [39]: > 100 µM
